Series [1] relates to luciferase-expressing, venetoclax-resistant MOLM-13 cells. The experiment in a line: Mouse xenograft study (MOLM13 AML). Format: in vivo. The note with it: NSG mice, 1×10^7 NK cells IV, venetoclax 50 mg/kg daily for 21 days where given. As for the experimental part: FIG. 15: A schema of NK cell dosing regimen and venetoclax treatment plan. NSG mice were inoculated IV with 2.5×10^5 luciferase-expressing MOLM13 cells, and tumor engraftment was assessed by IVIS imaging 4 days later for baseline pre-treatment grouping. On day 4 after tumor inoculation, mice were either left untreated or treated with 1×10^7 WT iPSC-derived NK cells or BCL2 G101V iPSC-derived NK cells alone or in combination with venetoclax for 21 days. NK cells were supported by injection of IL-15 for the first week and IL-2 for three weeks with IVIS imaging done as indicated to monitor tumor progression.
Eight-week-old NOD/SCID/γc−/− (NSG) mice (Jackson Laboratories, n=5 per group) were used for in vivo experiments. Mice received 2.5×10^5 luciferase-expressing MOLM13 tumor cells intravenously. Mice were sub-lethally irradiated (225 cGy) 4 days after tumor engraftment. 107 NK cells/mouse were injected IV on the day of irradiation. NK cells were supported by the injection of IL-2 and IL-15 as reported previously 27, 28. […] Tumor burden was determined by BLI using the Xenogen IVIS Imaging system. […]
To evaluate the anti-tumor activity of BCL2G101V/G101V NK cells in vivo, BCL2G101V/G101V iPSC-derived NK cell killing of MOLM13 AML cells was assessed in a mouse xenograft tumor model. […] Tumor growth was monitored by bioluminescent imaging (BLI) (FIG. 16A).

The test system of series [2] is WT iPSC-derived NK cells (BCL2WT/WT). Description: Venetoclax dose response / cell survival assay on WT iPSC-derived NK cells. Format: cell-based, human. The procedure: (§1) FIGS. 12A-12H: BCL2 G101V iPSC-derived NK cells are resistant to venetoclax and anti-apoptotic BCL2 family member levels are unchanged. Dose response curves for WT iPSC-derived NK (FIG. 12A), Homozygous BCL2 G101V iPSC-derived NK cells (FIG. 12B), and Heterozygous BCL2 G101V iPSC-derived NK cells (FIG. 12C) treated with Venetoclax and assessed for viability at 72 hours post treatment. FIG. 12D. Dose response for WT iPSC-derived NK and homozygous BCL2 G101V iPSC-derived NK cells treated with dexamethasone and assessed for viability at 72 hours post treatment. […] real-time PCR analysis of BCL2 (FIG. 12E), BCL-XL (FIG. 12F), and MCL1 (FIG. 12G) mRNA level for WT iPSC-derived NK and BCL2 G101V iPSC-derived NK cells vehicle or venetoclax treated. FIG. 12H. Immunoblots for BCL2, and BCL-XL protein levels with a β-actin loading control.
(§2) Resistance to venetoclax of the heterozygous and homozygous BCL2 G101V iPSC-derived NK cells was tested in cell survival assays.

Series [3] has as its system venetoclax-resistant MOLM13 cells. Description: Venetoclax sensitivity of venetoclax-resistant MOLM13 cells. Format: cell-based. As for the experimental part:
The MOLM13 cells lines were cultured continuously in increasing concentrations of venetoclax over 6 weeks to generate and select for venetoclax-resistant cells. The resulting cells could be maintained in 3 μM venetoclax without toxicity. The resistant cells were cultured continuously in the presence of venetoclax.
(§3) For longer-term assays to examine the ability of BCL2G101V/G101V iPSC-derived NK cells to mediate effective killing of venetoclax-resistant AML cells, MOLM13 cells that are venetoclax-resistant were generated.

The test system of a further series is WT MOLM13 cells. Description: Venetoclax sensitivity of WT MOLM13 cells. Format: cell-based. As to conditions: Homo sapiens, MOLM-13.
Description: as §3

Series [4] has as its system Heterozygous BCL2 G101V iPSC-derived NK cells (BCL2G101V/WT). The experiment in a line: Venetoclax dose response / cell survival assay on heterozygous BCL2 G101V iPSC-derived NK cells. Format: cell-based. As to conditions: Homo sapiens, viability at 72 hours post treatment. The procedure:
as §1, §2

Series [5] concerns Homozygous BCL2 G101V iPSC-derived NK cells (1F6). Description: Venetoclax dose response / cell survival assay on homozygous BCL2 G101V (1F6) iPSC-derived NK cells. Format: cell-based. The note with it: Homo sapiens; homozygous BCL2G101V/G101V (1F6) NK cells; viability at 72 hours post treatment; read-out: EC50 where 50% of the NK cells are killed by venetoclax. As for the experimental part: as §1, §2

The conditions of series [6]: dose of 400 mg/day; cited from earlier work.

Data on one compound can be found in patent US20260124240A1, “DRUG RESISTANT IMMUNE CELLS” (The Regents of the University of California, priority 2022, published 2026).

Take `CC1(C)CCC(CN2CCN(c3ccc(C(=O)NS(=O)(=O)c4ccc(NCC5CCOCC5)c([N+](=O)[O-])c4)c(Oc4cnc5[nH]ccc5c4)c3)CC2)=C(c2ccc(Cl)cc2)C1` [venetoclax]: the median survival in series [1] is reported as 18.8 days. Moreover, the concentration for a half-maximal effect (EC50) in series [2] (Homo sapiens, WT iPSC-derived NK cells, viability at 72 hours post treatment, read-out: EC50 where 50% of the NK cells are killed by venetoclax) was found to be 63.7 nM; in series [4], 3550 nM; in series [5], 6020 nM. In series [2] (at serum concentration of 2.3 μmol/L), the “toxicity to unengineered NK cells” value is “toxic”. In series [3] (venetoclax-resistant MOLM13), the “increased resistance to venetoclax compared to WT MOLM13 cells” value is “over 100 fold”. For the same compound, the “venetoclax concentration in which resistant cells could be maintained without toxicity” value in series [3] (venetoclax-resistant MOLM13, selected over 6 weeks) stood at 3 µM. For the same compound, the IC50 in the series with WT MOLM13 cells was 24 nM. For the same compound, the serum concentration in series [6] is 2300 nM.

A word on the EC50: it is the concentration giving half of the maximal effect. The term IC50 denotes the concentration that inhibits the measured activity by half. A lower IC50 goes with greater potency.
